Measurements published in patent publication US12016852B2, “Pyrrolidine glycosidase inhibitors” (Asceneuron SA, priority 2018, dated 2024).

Target: T1, Human O-GlcNAcase (His-Tagged hOGA) (Homo sapiens, UniProt O60502)
T1 sequence (O60502 1-916): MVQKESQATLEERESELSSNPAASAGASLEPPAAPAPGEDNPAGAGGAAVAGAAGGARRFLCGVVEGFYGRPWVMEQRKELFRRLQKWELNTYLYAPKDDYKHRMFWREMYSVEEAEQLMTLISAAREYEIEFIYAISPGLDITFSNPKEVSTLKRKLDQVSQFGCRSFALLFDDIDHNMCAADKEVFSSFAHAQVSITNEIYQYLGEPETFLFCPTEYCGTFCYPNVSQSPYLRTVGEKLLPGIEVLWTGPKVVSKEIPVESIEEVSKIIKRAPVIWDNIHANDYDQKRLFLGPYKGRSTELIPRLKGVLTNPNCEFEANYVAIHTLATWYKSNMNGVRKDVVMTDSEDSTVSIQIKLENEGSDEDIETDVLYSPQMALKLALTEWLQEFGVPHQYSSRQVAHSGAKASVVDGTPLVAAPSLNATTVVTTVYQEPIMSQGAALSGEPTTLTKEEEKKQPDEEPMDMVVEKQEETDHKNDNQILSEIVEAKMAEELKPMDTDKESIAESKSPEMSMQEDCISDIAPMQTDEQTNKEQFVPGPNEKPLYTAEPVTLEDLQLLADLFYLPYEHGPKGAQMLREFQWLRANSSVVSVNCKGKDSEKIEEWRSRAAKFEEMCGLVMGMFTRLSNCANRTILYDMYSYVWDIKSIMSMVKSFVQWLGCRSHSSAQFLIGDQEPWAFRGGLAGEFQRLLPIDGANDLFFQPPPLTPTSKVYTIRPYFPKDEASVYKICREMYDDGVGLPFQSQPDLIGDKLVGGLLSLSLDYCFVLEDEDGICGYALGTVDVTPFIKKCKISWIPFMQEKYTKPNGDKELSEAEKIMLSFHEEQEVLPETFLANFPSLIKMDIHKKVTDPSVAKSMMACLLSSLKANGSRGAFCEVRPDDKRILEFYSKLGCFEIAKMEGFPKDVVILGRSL
Test: Human O-GlcNAcase enzyme inhibition assay
Assay type: biochemical
Conditions: 20 nM His-Tagged hOGA, 10 μM FL-GlcNAc, McIlvaine's Buffer pH 6.5, 60 min at room temperature, fluorescence; read-out: OGA IC50
Experimental: Example B01: Human O-GlcNAcase Enzyme Inhibition Assay
5 μl of the appropriate concentration of a solution of inhibitor in Mcllvaine's Buffer (pH 6.5) in 2% DMSO (for a dose response curve calculation) is added into each well of a 384-well plate (Greiner, 781900). Then, 20 nM of His-Tagged hOGA and 10 μM of FL-GlcNAc (Fluorescein mono-beta-D-(2-deoxy-2-N-acetyl) glucopyranoside; Marker Gene Technologies Inc, M1485) were added to the 384-well plate for a final volume of 20 μl. After incubation for 60 min at room temperature, the reaction was terminated by the addition of 10 μL of stop buffer (200 mM glycine, pH 10.75). The level of fluorescence (λexc 485 nm; (λemm 520 nm) was read on a PHERAstar machine. The amount of fluorescence measured was plotted against the concentration of inhibitor to produce a sigmoidal dose response curve to calculate an IC50. All individual data was corrected by subtraction of the background (Thiamet 3 uM=100% inhibition) whilst 0.5% DMSO was considered as the control value (no inhibition).

IC50 | Structure (SMILES)
200 to 1000 nM | N#Cc1ccc(Oc2ccc(CN3CCCC3c3ccc4c(c3)OCCO4)cc2)cc1 (racemic) [Example 154]
200 to 1000 nM | Cc1cc(-c2ccc(CN3CCCC3c3ccc4c(c3)OCCO4)cn2)ccn1 (racemic) [Example 155]
200 to 1000 nM | Cc1cc(C(=O)Nc2ccc(CN3CCCC3c3ccc4c(c3)OCCO4)cc2)cc(C)n1 (racemic) [Example 156]
200 to 1000 nM | Fc1cccc(Oc2ccc(CN3CCCC3c3ccc4c(c3)OCCO4)cc2)n1 (racemic) [Example 157]
200 to 1000 nM | Cc1cc(C(=O)Nc2ccc(CN3CCCC3c3ccc4c(c3)OCCO4)cc2)ccn1 (racemic) [Example 158]
< 50 nM | COc1ncc(-c2ccc(CN3CCCC3c3ccc4c(c3)OCCO4)cc2)cn1 (racemic) [Example 159]
50 to 200 nM | Fc1ccc(-c2ccc(CN3CCCC3c3ccc4c(c3)OCCO4)cc2)nc1 (racemic) [Example 160]

Continued, compound first:

Structure (SMILES) | IC50
Cc1cc(CN2CCCC2c2ccc3c(c2)OCCO3)ccc1-c1ccncc1 (racemic) [Example 147] | 1000 to 10000 nM
CS(=O)(=O)c1cnc(-c2ccc(CN3CCCC3c3ccc4c(c3)OCCO4)cc2)nc1 (racemic) [Example 149] | 50 to 200 nM
Cn1cc(-c2ccc(CN3CCCC3c3ccc4cccnc4c3)cc2)cn1 (racemic) [Example 150] | 50 to 200 nM
COc1cccc(-c2ccc(CN3CCCC3c3ccc4c(c3)OCCO4)cc2)n1 (racemic) [Example 151] | 200 to 1000 nM
Cn1ccc(-c2ccc(CN3CCCC3c3ccc4c(c3)OCCO4)cc2)n1 (racemic) [Example 152] | 200 to 1000 nM
Brc1cncc(Oc2ccc(CN3CCCC3c3ccc4c(c3)OCCO4)cc2)c1 (racemic) [Example 153] | 200 to 1000 nM
Cc1ccc(-c2nc(CN3CCCC3c3ccc4c(c3)OCO4)co2)cc1 (single isomer, unassigned) [Example 2, (S)-4-((2-(benzo[d] [1,3]dioxol-5-yl)pyrrolidin-1-yl)methyl)-2-(D-tolyl)oxazole or (R)-4-((2-(benzo[d] [1,3]dioxol-5-yl)pyrrolidin-1-yl)methyl)-2-(D-tolyl)oxazole] | 1000 to 10000 nM
Cn1cc(-c2ccc(CN3CCCC3c3ccc4c(c3)OCCO4)cc2)cn1 (single isomer, unassigned) [Example 6, (S)-4-(4-((2-(2,3-dihydrobenzo[b] [1,4]dioxin-6-yl)pyrrolidin-1-yl)methyl)phenyl)-1-methyl-1H-pyrazole or (R)-4-(4-((2-(2,3-dihydrobenzo[b] [1,4]dioxin-6-yl)pyrrolidin-1-yl)methyl)phenyl)-1-methyl-1 H-pyrazole] | < 50 nM
Cn1cc(-c2ccc(CN3CCCC3c3ccc4c(c3)OCCO4)cn2)cn1 (single isomer, unassigned) [Example 7, (S)-5-((2-(2,3-dihydrobenzo[b] [1,4]dioxin-6-yl)pyrrolidin-1-yl)methyl)-2-(1-methyl-1H-pyrazol-4-yl)pyridine or (R)-5-((2-(2,3-dihydrobenzo[b] [1,4]dioxin-6-yl)pyrrolidin-1-yl)methyl)-2-(1-methyl-1H-pyrazol-4-yl)pyridine] | 50 to 200 nM
CS(=O)(=O)c1ccc(CN2CCCC2c2ccc3c(c2)OCCO3)cc1 (single isomer, unassigned) [Example 13, (S)-2-(2,3-dihydrobenzo[b] [1,4]dioxin-6-yl)-1-(4-(methylsulfonyl)benzyl) pyrrolidine or (R)-2-(2,3-dihydrobenzo[b] [1,4]dioxin-6-yl)-1-(4-(methylsulfonyl)benzyl) pyrrolidine] | 200 to 1000 nM
Cn1cc(-c2ccc(CN3CCCC3c3ccc4c(c3)OCCO4)nc2)cn1 (single isomer, unassigned) [Example 18, (S)-2-((2-(2,3-dihydrobenzo[b] [1,4]dioxin-6-yl)pyrrolidin-1-yl)methyl)-5-(1-methyl-1H-pyrazol-4-yl)pyridine or (R)-2-((2-(2,3-dihydrobenzo[b] [1,4]dioxin-6-yl)pyrrolidin-1-yl)methyl)-5-(1-methyl-1H-pyrazol-4-yl)pyridine] | 1000 to 10000 nM
